This passage reports melting point results from a melting point compilation (Tetko et al.; mined from patent text by program, amines drawn as free bases though some values may be those of a salt).

Where only a bound is given, the exact number is not on record here.

For the compound `O=C(COc1ccc2c(-c3ccccc3F)noc2c1Br)NO`, the melting point fell in the range of 165 to 167 °C.

Compound `CC(C)n1nc(-c2c(OC3CCC3)nc(N)nc2-c2ccccc2)ccc1=O` displayed a melting point of 161 to 162 °C.

Turning to `CCN1C(=O)N(c2cc(OC)cc(OC)c2Cl)Cc2cnc(SC)nc21`, the melting point fell in the range of 189 to 191 °C.

In the case of `Cc1cn2nc(-c3ccccc3)nc2cc1NC(=O)c1c(C(=O)N2CCC2)cnn1C`, the melting point was 226 to 228 °C.

`NCc1c(N)cccc1Oc1ccccc1` displayed a melting point of 69 to 71 °C.

`COc1cc(/C=C/CCO)ccc1OCc1ccccc1` returned a melting point of 57 to 61 °C.

As to `CCCCCCCCCCCCCCCCCCOC(=O)C(NC(C)=O)C(=O)OC` (stereo unspecified), the melting point lay in the range of 75 to 77 °C.

As for `COC(=O)CC(=O)Nc1ccccc1COc1ccc(C(C)=O)c(O)c1`, the melting point lay within 130 to 132 °C.

Compound `CCCn1c(=O)c2[nH]c(-c3cc(C)n(CC(=O)Nc4ccc(Cl)cc4)n3)nc2n(CCC)c1=O` returned a melting point of 261 to 265 °C.

The compound `Cc1onc(-c2ccccc2)c1-c1ccc(S(N)(=O)=O)cc1` showed a melting point of 171 to 174 °C.

`Cc1cc(C)c(-n2c(C)cc(C)c(C#N)c2=O)cc1NS(=O)(=O)C(F)(F)F`: the melting point is 274 to 276 °C.

`O=C(O)c1cccc2nc(C(F)(F)C(F)(F)C(F)(F)F)n(Cc3ccccc3Cl)c12` yielded a melting point of 213 to 214 °C.

As to `Cc1c(C(=O)c2ccccc2)c(NC(=O)CI)cn1C`, the melting point was 135 to 137 °C.

The compound `CC(C)=CCc1cc(-c2oc3c(CC=C(C)C)c(O)cc(O)c3c(=O)c2O)ccc1O` returned a melting point of 145 to 146 °C.

As for `O=c1ncc(Cl)cn1CSc1ccc(F)cc1`, the melting point was 179 °C.

Take `O=C(NCCCCCCOC(=O)N1CCC2(CCCC2)CC1)OC1CCN(C(=O)Oc2ccc3oc4ccccc4c3c2)CC1`: the melting point lay in the range of 100 to 102 °C.

Regarding `CCOCc1nc2c(N)nc3ccccc3c2n1CC1(O)CCN(C(=O)OC(C)(C)C)CC1`, the melting point lay in the range of 195 to 197 °C.

Compound `COc1ccc2[nH]c(=O)c(-c3nnnn3Cc3cccc(OCc4ccc5ccccc5n4)c3)cc2c1` gave a melting point of 215 to 217 °C.

The compound `CCOC(=O)c1c(N2CCN(C(=O)c3cccs3)CC2)c2cccnc2n(CCN(C)C)c1=O` gave a melting point of 134 °C.

As to `O=[N+]([O-])c1ccc(CCN2CCN(C3CCc4ccccc4C3O)CC2)cc1` (stereo unspecified), the melting point lay within 155 to 159 °C.

Consider `CCCCOC(=O)c1cccc(-c2c3nn(-c4ccc(Cl)cc4)c(=O)c-3c[nH]c2C)c1`, for which the melting point lay in the range of 185 to 190 °C.

For the compound `COc1ccccc1CN[C@@H]1[C@@H]2CCN([C@H](CCc3ccccc3)C2)[C@@H]1C(c1ccccc1)c1ccccc1` (relative stereo), the melting point lay within 107 to 108 °C.

On to `CN(C)CCCNC(=O)N1C(=O)Cc2cc(Cl)ccc21`, for which the melting point was 84 to 85 °C.

The compound `CC(=O)Oc1cccc(C(=O)Nc2nc(S(C)(=O)=O)cs2)c1` yielded a melting point of 209 to 212 °C.

`O=C(O)CSCc1ccc([N+](=O)[O-])cc1` registered a melting point of 101 to 104 °C.

`O=Cc1ccc2cc(C=O)ccc2c1` gave a melting point of 173 to 174 °C.

In the case of `Cc1ccc(C2Sc3ccccc3NC(=O)C2CO)cc1` (stereo unspecified), the melting point was found to be 229 °C.

Consider `CC1CC=C(N(C)c2ccccc2)c2ncc(C(=O)O)c(=O)n21` (stereo unspecified), for which the melting point lay within 170 to 171 °C.

In turn, `CN(C)c1ccc(C=NC2CCCCC2N=Cc2ccc(O)cc2O)c(O)c1` (stereo unspecified) returned a melting point of 202 °C.

As to `Cn1ncnc1COc1nn2c(-c3ccccc3)nnc2cc1N1CCOCC1`, the melting point fell in the range of 210 to 211 °C.

Take `CCOP(=O)(OCC)C(Sc1cc(C(C)(C)C)c(O)c(C(C)(C)C)c1)P(=O)(OCC)OCC`: the melting point is 78 to 80 °C.

Turning to `C[C@@]1(Cn2cc([N+](=O)[O-])nc2Br)CO1`, the melting point was 93 to 94 °C.

As for `CN(C)S(=O)(=O)C=C(C(=O)C1CCCCC1)c1cccc([N+](=O)[O-])c1`, the melting point lay in the range of 115 to 118 °C.

The compound `CCc1nc2c(cnn2CC)c(NC2CCOCC2)c1CNC(=O)c1cccc(C(=O)NCc2ccc(C)c(-c3cccc(CN4CC(C)NC(C)C4)c3)c2)c1` (stereo unspecified) registered a melting point of 109 to 112 °C.

Compound `Cc1cc(N2CCCC(O)C2)c(S(C)(=O)=O)cc1C(=O)N=C(N)N` (stereo unspecified) had a melting point of 194 to 196 °C.

On to `O=C1NCC(Cc2ccccc2O)O1` (stereo unspecified), for which the melting point lay within 93 to 95 °C.

Compound `CC(=O)OCc1ccc2oc(=O)c(C(=O)Oc3cc(F)ccc3[N+](=O)[O-])cc2c1` showed a melting point of 157 to 161 °C.

`O=C(CCc1cc(C2CCCCC2)c(O)c(C2CCCCC2)c1)NCCCCCCNC(=O)CCc1cc(C2CCCCC2)c(O)c(C2CCCCC2)c1` had a melting point of 28 °C.

For the compound `CC(C)c1ccc(C(=O)C(=O)c2ccccc2)c(C(C)C)c1OS(N)(=O)=O`, the melting point is 106 to 109 °C.

`COC(=O)C(=O)NC(=O)N1CCCCC1` had a melting point of 92 to 93 °C.

In turn, `CCCCN1CCC(CNC(=O)c2ccc(N)n3cc(Cl)nc23)CC1` registered a melting point of 113 °C.

Compound `Cc1ccsc1C1CC(=O)CC(=O)C1` displayed a melting point of 166 to 168 °C.

The compound `COc1ccccc1Oc1cccc2c1NC(=O)C2SC` (stereo unspecified) returned a melting point of 114 °C.

In the case of `COc1ccc(N2CCN(c3c(C)c(C)c4c(c3C)C(N3CCCc5ccccc53)C(C)(C)O4)CC2)cc1` (stereo unspecified), the melting point was in the range of 188 to 190 °C.

`CC(C)c1cc(C=CC(=O)Nc2cccc(C(=O)O)c2)oc1C(C)C` yielded a melting point of 220 to 222 °C.

`O=C(O)c1cn(C2CC2)c2c(F)c(N3Cc4cccc(O)c4C3)c(F)cc2c1=O` had a melting point of more than 300 °C.

With `O=C(O)c1cccc(C23CC4CC(CC(C4)C2)C3)c1`, the melting point was in the range of 247 to 249 °C.

For the compound `COc1cc(OCC2CC2)c(/C=C/C(=O)c2ccc(C(=O)O)cc2)cc1-c1cccs1`, the melting point lay within 187 to 191 °C.

In the case of `NCc1nnc2n1-c1ccc(Cl)cc1C(c1ccccc1F)=CC2`, the melting point is 188 to 190 °C.

In the case of `O=C(CCCN1CCC(c2ccccc2)CC1)c1ccc2c(c1)Cc1cc(C(=O)CCCN3CCC(c4ccccc4)CC3)ccc1-2`, the melting point lay in the range of 190 to 192 °C.

As to `CC(C)(C)c1cc(CCCBr)cc(C(C)(C)C)c1O`, the melting point fell in the range of 52 to 54 °C.

For the compound `O=C1CCCC2=C1OC(CC(=O)c1ccccc1)(c1ccccc1)C=C2c1ccccc1` (stereo unspecified), the melting point is 178 to 179 °C.

`CSc1nc(-c2cc(C(C)(C)C)c(O)c(C(C)(C)C)c2)c(-c2ccccc2)[nH]1` displayed a melting point of 129 to 131 °C.

Turning to `O=C1Nc2ccc(F)cc2C1c1ncnc2c1cnn2C1CCCC1` (stereo unspecified), the melting point was in the range of 254 to 257 °C.

Compound `CC(C)(C)OC(=O)OCc1ccc(COC(=O)OC(C)(C)C)cc1` yielded a melting point of 71 to 74 °C.

As for `CNc1cc(Cl)cc(C)n1`, the melting point was in the range of 69 to 70 °C.

`COCc1cnc(C(=O)O)c(C(=O)O)c1`: the melting point fell in the range of 161 to 162 °C.

As to `O=C(c1ccc(Br)cc1)c1cc2c(ccc3ccccc32)oc1=O`, the melting point lay within 213 to 215 °C.

Compound `COc1cc(N)c(Cl)cc1C(=O)NCC1CCN(CCCCCNC(=O)Nc2ccc(Cl)cc2)CC1` gave a melting point of 204 to 206 °C.

Turning to `COc1c(Br)cc(Br)cc1CC#N`, the melting point is 87 to 88 °C.

`CCOC(=O)/C=C/c1cc(O)ccc1Br`: the melting point was 96 to 98 °C.

On to `CCOC(=O)c1cc(Cl)c(S(C)(=O)=O)c(-c2cc(C)no2)c1C`, for which the melting point is 126 to 129 °C.

On to `COC(=O)CCn1c(C)c(Cn2ccnc2)c2c(CCC(=O)O)cccc21`, for which the melting point lay within 136 to 138 °C.

For the compound `COC1(OC)CC(Nc2ncnc3c2ncn3C2OC(CO)C(O)C2O)NC1=O` (stereo unspecified), the melting point was 176 to 178 °C.

With `O=c1[nH]c2ccccc2cc1CN1CC=C(Cc2ccccc2)CC1`, the melting point fell in the range of 155 to 158 °C.

Compound `CC12CCC(O)CC1=CCC1C2CCC2(C)C(c3ccco3)=CCC12` (stereo unspecified) yielded a melting point of 105 to 116 °C.

As for `N#Cc1ccc(OCc2ccncc2)cc1OC(C(=O)O)c1ccccc1Br` (racemic), the melting point was in the range of 171 to 172 °C.

In turn, `COC(=O)c1cccc(-c2nc(-c3ccc(F)cc3F)cs2)c1` returned a melting point of 121 to 122 °C.

In turn, `COc1ccc(S(=O)(=O)Nc2c(C)c(C)c3c(c2C)C(c2ccc(C(C)C)cc2)C(C)(C)O3)cc1` (stereo unspecified) showed a melting point of 206 to 208 °C.

The compound `COc1ccc(-c2c(NCC(C)c3ccccc3)c(=O)c2=O)cc1` (stereo unspecified) displayed a melting point of 215 to 216 °C.

Regarding `COc1ccc(CNc2ncccc2C(=O)Nc2cccc(C(F)(F)F)c2)cn1`, the melting point was determined as 185 °C.

The compound `CCNC(=O)c1ccc(-n2nnc(C(=O)NC3CC3)c2CS(=O)(=O)c2ccccc2)cc1` displayed a melting point of 169 to 172 °C.

With `CCCCCCCCCCCCCCCC(=O)Oc1c(F)c(F)c(F)c(F)c1F`, the melting point was in the range of 42 to 44 °C.

For the compound `CS(=O)c1ccc(C(=O)CCCCC#N)cc1` (stereo unspecified), the melting point lay within 89.5 to 91.5 °C.

For `Nc1nc2ccccc2c2c1nc(CF)n2CC1(O)CCOC1` (stereo unspecified), the melting point lay within 169 to 171 °C.

As to `OCc1cc2c(cn1)[nH]c1ccccc12`, the melting point lay within 228 to 230 °C.

On to `CNC(=O)c1cccc(NC(=O)CCc2ccccc2)c1`, for which the melting point fell in the range of 142 to 143 °C.

`CC(=O)OCCn1nc(-c2cc(C(C)(C)C)cc(C(C)(C)C)c2)c2cccnc21` registered a melting point of 115 to 116 °C.

For `CC(=O)n1nc(-c2cnccn2)nc1-c1cnccn1`, the melting point fell in the range of 128 to 130 °C.

In turn, `CC#CC(C)(C)NC(=O)C(CC)Oc1ccc2ncc(C#N)cc2c1` (stereo unspecified) displayed a melting point of 116 to 118 °C.

`COc1cc(-c2cc(C(F)(F)F)nn2-c2ccc(S(C)(=O)=O)cc2)ccc1-c1ccco1` gave a melting point of 138 to 140 °C.

Turning to `COC(=O)COc1cccc2c(CCN=[N+]=[N-])c(C)oc12`, the melting point is 88 to 90 °C.

Take `Cc1nc(CN(C)C)n(-c2ccc(Cl)cc2C(=O)c2ccccc2Cl)c1CO`: the melting point lay within 164 to 166 °C.

Compound `CCC1(CCCCCBr)C(=O)Nc2cc(F)ccc21` (stereo unspecified) had a melting point of 95 to 96 °C.

In turn, `CS(=O)(=O)c1ccc(-c2nc(C(F)(F)F)nc(NN)c2-c2ccc(S(=O)(=O)NN)cc2)cc1` came in with a melting point of 203 to 206 °C.

`O=C(Nc1c[nH]nc1C(=O)NCCc1cccnc1)c1ccccn1` came in with a melting point of 267 to 268 °C.

For orientation: melting point means the temperature of the solid-liquid transition.
